Earlier results, collected in patent US11390612B2, “Polymorphic forms of Afatinib free base and Afatinib dimaleate” (FRESENIUS KABI ONCOLOGY LIMITED, priority 2015, dated 2022).

Details: as observed in WO 2013/052157

## CN(C)C/C=C/C(=O)Nc1cc2c(Nc3ccc(F)c(Cl)c3)ncnc2cc1O[C@H]1CCOC1.O=C(O)/C=C\C(=O)O.O=C(O)/C=C\C(=O)O [form A of Afatinib dimaleate]
After absorbing moisture
  polymorphic conversion after absorbing moisture: converts to form E of Afatinib dimaleate
  hygroscopicity: hygroscopic in nature
